Experiment [1] relates to Euschistus heros (Neotropical Brown Stink Bug). Put plainly: whole plant or invertebrate. The class given is in vivo. Conditions: 120 h, application rate of 200 ppm, N2 nymphs on sprayed soybean leaves, 5 days after infestation, read-out: effect in at least one of the two categories (mortality or growth inhibition).
Experiment [2] has as its system Myzus persicae (Green Peach Aphid). Put plainly: whole plant or invertebrate. Type of experiment: in vivo. Conditions: 144 h, test rate of 24 ppm, systemic, roots of infested pea seedlings in test solution, 6 days.
Experiment [3] has the same test system. Put plainly: whole plant or invertebrate. Particulars: foliar, 144 h.
Experiment [4] relates to Plutella xylostella (Diamond Back Moth). Briefly: whole plant or invertebrate. Type of experiment: in vivo. Conditions: 120 h, application rate of 200 ppm, L2 larvae on treated artificial diet, 5 days after infestation, read-out: effect in at least one of the two categories (mortality or growth inhibition).
Experiment [5] has as its system Diabrotica Balteata (Corn Root Worm). Put plainly: Diabrotica balteata (Corn Root Worm). Conditions: in Zea mays, 96 h, read-out: effect in at least one of the two categories (mortality or growth inhibition).

SMILES strings stand for the structures.

As usually defined, the mortality is the share of the test organisms that died.

As for `CCS(=O)(=O)c1cc(OCS(C)(=N)=O)cnc1-c1nc2cc(C(F)(F)F)ncc2n1C` (stereo not drawn) [Compound P80, [5-ethylsulfonyl-6-[3-methyl-6-(trifluoromethyl)imidazo[4,5-c]pyridin-2-yl]-3-pyridyl]oxymethyl-imino-methyl-oxo-$|^6-sulfane], the percent effect (mortality or growth inhibition) at 200 ppm in experiment [1] was at least 80%. Besides, in experiment [2], the mortality at 24 ppm was at least 80%. The compound further had a mortality at 200 ppm in experiment [3] of at least 80%.

With `CCS(=O)(=O)c1cc(OCC(=O)N(C)C)cnc1-c1nc2cc(C(F)(F)F)ncc2n1C` [Compound P51, 2-[[5-ethylsulfonyl-6-[3-methyl-6-(trifluoromethyl)imidazo[4,5-c]pyridin-2-yl]-3-pyridyl]oxy]-N,N-dimethyl-acetamide], the percent effect (mortality or growth inhibition) at 200 ppm in experiment [1] is at least 80%. The same compound showed a mortality at 24 ppm in experiment [2] of at least 80%.

Turning to `CCS(=O)(=O)c1cc(OC(SC)C(=O)N(C)C)cnc1-c1nc2cc(C(F)(F)F)ncc2n1C` (stereo not drawn) [Compound P36, 2-[[5-ethylsulfonyl-6-[3-methyl-6-(trifluoromethyl)imidazo[4,5-c]pyridin-2-yl]-3-pyridyl]oxy]-N,N-dimethyl-2-methylsulfanyl-acetamide], the percent effect (mortality or growth inhibition) at 200 ppm in experiment [1] was at least 80%.

For the compound `CCSc1cc(OC(C#N)(CC)CC)cnc1-c1nc2cc(C(F)(F)F)ncc2n1C` [Compound P43, 2-ethyl-2-[[5-ethylsulfanyl-6-[3-methyl-6-(trifluoromethyl)imidazo[4,5-c]pyridin-2-yl]-3-pyridyl]oxy]butanenitrile], the percent effect (mortality or growth inhibition) at 200 ppm in experiment [1] is at least 80%.

Regarding `CCSc1cc(OCC2CC2)cnc1-c1nc2cc(C(F)(F)F)ncc2n1C` [Compound P23, 2-[5-(cyclopropylmethoxy)-3-ethylsulfanyl-2-pyridyl]-3-methyl-6-(trifluoromethyl)imidazo[4,5-c]pyridine], the percent effect (mortality or growth inhibition) at 200 ppm in experiment [4] is at least 80%. For the same compound, the mortality at 200 ppm in experiment [3] and in experiment [5] was at least 80% each time.

For `C=CCOc1cnc(-c2nc3cc(C(F)(F)F)ncc3n2C)c(SCC)c1` [Compound P95, 2-(5-allyloxy-3-ethylsulfanyl-2-pyridyl)-3-methyl-6-(trifluoromethyl)imidazo[4,5-c]pyridine], in experiment [5], the mortality at 200 ppm was at least 80%.

On to `CCS(=O)(=O)c1cc(OC(F)(F)CBr)cnc1-c1nc2cc(C(F)(F)F)ncc2n1C` [Compound P109, 2-[5-(2-bromo-1,1-difluoro-ethoxy)-3-ethylsulfonyl-2-pyridyl]-3-methyl-6-(trifluoromethyl)imidazo[4,5-c]pyridine], for which the percent effect (mortality or growth inhibition) at 200 ppm in experiment [4] was at least 80%.

Take `CCS(=O)(=O)c1cc(OS(=O)(=O)C(F)F)cnc1-c1nc2cc(C(F)(F)F)ncc2n1C` [Compound P91, [5-ethylsulfonyl-6-[3-methyl-6-(trifluoromethyl)imidazo[4,5-c]pyridin-2-yl]-3-pyridyl] difluoromethanesulfonate]: the mortality at 200 ppm in experiment [5] is at least 80%.

`CCS(=O)(=O)c1cc(OCC2(C)COC2)cnc1-c1nc2cc(C(F)(F)F)ncc2n1C` [Compound P54, 2-[3-ethylsulfonyl-5-[(3-methyloxetan-3-yl)methoxy]-2-pyridyl]-3-methyl-6-(trifluoromethyl)imidazo[4,5-c]pyridine]: in experiment [1], the percent effect (mortality or growth inhibition) at 200 ppm is at least 80%. In experiment [2], this compound yielded a mortality at 24 ppm of at least 80%. For the same compound, in experiment [3], the mortality at 200 ppm was at least 80%.

As to `CCS(=O)(=O)c1cc(OC(C(=O)N(C)C)S(C)(=O)=O)cnc1-c1nc2cc(C(F)(F)F)ncc2n1C` (stereo not drawn) [Compound P38, 2-[[5-ethylsulfonyl-6-[3-methyl-6-(trifluoromethyl)imidazo[4,5-c]pyridin-2-yl]-3-pyridyl]oxy]-N,N-dimethyl-2-methylsulfonyl-acetamide], the mortality at 24 ppm in experiment [2] was at least 80%.

Take `CCS(=O)(=O)c1cc(OS(C)(=O)=O)cnc1-c1nc2cc(C(F)(F)F)ncc2n1C` [Compound P93, [5-ethylsulfonyl-6-[3-methyl-6-(trifluoromethyl)imidazo[4,5-c]pyridin-2-yl]-3-pyridyl] methanesulfonate]: in experiment [4], the percent effect (mortality or growth inhibition) at 200 ppm is at least 80%. The compound also displayed a mortality at 200 ppm in experiment [3] of at least 80%.

For the compound `CCS(=O)(=O)c1cc(OC(SC)C(=O)NC)cnc1-c1nc2cc(C(F)(F)F)ncc2n1C` (stereo not drawn) [Compound P37, 2-[[5-ethylsulfonyl-6-[3-methyl-6-(trifluoromethyl)imidazo[4,5-c]pyridin-2-yl]-3-pyridyl]oxy]-N-methyl-2-methylsulfanyl-acetamide], the percent effect (mortality or growth inhibition) at 200 ppm in experiment [1] is at least 80%. This compound returned a mortality at 200 ppm in experiment [3] of at least 80%.

The compound `CCS(=O)(=O)c1cc(OC(C)(C)C(=O)N(C)C)cnc1-c1nc2cc(C(F)(F)F)ncc2n1C` [Compound P59, 2-[[5-ethylsulfonyl-6-[3-methyl-6-(trifluoromethyl)imidazo[4,5-c]pyridin-2-yl]-3-pyridyl]oxy]-N,N,2-trimethyl-propanamide] registered a mortality at 24 ppm in experiment [2] of at least 80%.

Regarding `CCS(=O)(=O)c1cc(OCCS(C)(=O)=O)cnc1-c1nc2cc(C(F)(F)F)ncc2n1C` [Compound P7, 2-[3-ethylsulfonyl-5-(2-methylsulfonylethoxy)-2-pyridyl]-3-methyl-6-(trifluoromethyl)imidazo[4,5-c]pyridine], the percent effect (mortality or growth inhibition) at 200 ppm in experiment [1] was at least 80%. In experiment [2], this compound returned a mortality at 24 ppm of at least 80%. Further, in experiment [3], the mortality at 200 ppm is at least 80%.

Consider `CCSc1cc(OC2(C)COC2)cnc1-c1nc2cc(C(F)(F)F)ncc2n1C` [Compound P14, 2-[3-ethylsulfanyl-5-(3-methyloxetan-3-yl)oxy-2-pyridyl]-3-methyl-6-(trifluoromethyl)imidazo[4,5-c]pyridine], for which the percent effect (mortality or growth inhibition) at 200 ppm in experiment [4] was at least 80%. For the same compound, the mortality at 200 ppm in experiment [5] was at least 80%.

With `CCS(=O)(=O)c1cc(OCCS(C)(=O)=O)ccc1-c1nc2cc(C(F)(F)F)ncc2n1C` [Compound P102, 2-[2-ethylsulfonyl-4-(2-methylsulfonylethoxy)phenyl]-3-methyl-6-(trifluoromethyl)imidazo[4,5-c]pyridine], the percent effect (mortality or growth inhibition) at 200 ppm in experiment [1] was at least 80%. The compound further came in with a mortality at 24 ppm in experiment [2] of at least 80%. Also, in experiment [3], the mortality at 200 ppm was at least 80%.

Regarding `CCSc1cc(OC(C)(C)C(N)=O)cnc1-c1nc2cc(C(F)(F)F)ncc2n1C` [Compound P77, 2-[[5-ethylsulfanyl-6-[3-methyl-6-(trifluoromethyl)imidazo[4,5-c]pyridin-2-yl]-3-pyridyl]oxy]-2-methyl-propanamide], in experiment [1], the percent effect (mortality or growth inhibition) at 200 ppm was at least 80%.

Consider `CCS(=O)(=O)c1cc(OC/C(C)=N/OC)cnc1-c1nc2cc(C(F)(F)F)ncc2n1C` [Compound P64, 1-[[5-ethylsulfonyl-6-[3-methyl-6-(trifluoromethyl)imidazo[4,5-c]pyridin-2-yl]-3-pyridyl]oxy]-N-methoxy-propan-2-imine], for which the percent effect (mortality or growth inhibition) at 200 ppm in experiment [1] and in experiment [4] was at least 80% in each case. In addition, the mortality at 200 ppm in experiment [3] is at least 80%.

As for `CCSc1cc(OCC(C)(C)C)cnc1-c1nc2cc(C(F)(F)F)ncc2n1C` [Compound P25, 2-[5-(2,2-dimethylpropoxy)-3-ethylsulfanyl-2-pyridyl]-3-methyl-6-(trifluoromethyl)imidazo[4,5-c]pyridine], in experiment [4], the percent effect (mortality or growth inhibition) at 200 ppm is at least 80%. Further, the mortality at 200 ppm in experiment [3] is at least 80%.

Consider `CCSc1cc(OC2COC2)cnc1-c1nc2cc(C(F)(F)F)ncc2n1C` [Compound P2, 2-[3-ethylsulfanyl-5-(oxetan-3-yloxy)-2-pyridyl]-3-methyl-6-(trifluoromethyl)imidazo[4,5-c]pyridine], for which the percent effect (mortality or growth inhibition) at 200 ppm in experiment [1] was at least 80%. Besides, the mortality at 200 ppm in experiment [5] was at least 80%.

For the compound `C#CCOc1cnc(-c2nc3cc(C(F)(F)F)ncc3n2C)c(SCC)c1` [Compound P17, 2-(3-ethylsulfanyl-5-prop-2-ynoxy-2-pyridyl)-3-methyl-6-(trifluoromethyl)imidazo[4,5-c]pyridine], the mortality at 200 ppm in experiment [5] was at least 80%.

Compound `CCS(=O)(=O)c1cc(OC(C)(C)C(=O)NC)cnc1-c1nc2cc(C(F)(F)F)ncc2n1C` [Compound P55, 2-[[5-ethylsulfonyl-6-[3-methyl-6-(trifluoromethyl)imidazo[4,5-c]pyridin-2-yl]-3-pyridyl]oxy]-N,2-dimethyl-propanamide] yielded a mortality at 24 ppm in experiment [2] of at least 80%. The compound also came in with a mortality at 200 ppm in experiment [3] of at least 80%.

For `CCS(=O)(=O)c1cc(OCc2cc(C3CC3)no2)cnc1-c1nc2cc(C(F)(F)F)ncc2n1C` [Compound P83, 3-cyclopropyl-5-[[5-ethylsulfonyl-6-[3-methyl-6-(trifluoromethyl)imidazo[4,5-c]pyridin-2-yl]-3-pyridyl]oxymethyl]isoxazole], the percent effect (mortality or growth inhibition) at 200 ppm in experiment [1] and in experiment [4] was at least 80% each time. Moreover, in experiment [5], the mortality at 200 ppm was at least 80%.

Consider `CCS(=O)(=O)c1cc(OC(C)(C)COC)cnc1-c1nc2cc(C(F)(F)F)ncc2n1C` [Compound P48, 2-[3-ethylsulfonyl-5-(2-methoxy-1,1-dimethyl-ethoxy)-2-pyridyl]-3-methyl-6-(trifluoromethyl)imidazo[4,5-c]pyridine], for which the mortality at 24 ppm in experiment [2] is at least 80%. Besides, the percent effect (mortality or growth inhibition) at 200 ppm in experiment [4] is at least 80%. The same compound displayed a mortality at 200 ppm in experiment [3] of at least 80%.

`CCS(=O)(=O)c1cc(OCc2ccccc2)cnc1-c1nc2cc(C(F)(F)F)ncc2n1C` [Compound P94, 2-(5-benzyloxy-3-ethylsulfonyl-2-pyridyl)-3-methyl-6-(trifluoromethyl)imidazo[4,5-c]pyridine]: the mortality at 200 ppm in experiment [5] is at least 80%.

These data come from US20200216441A1, “PESTICIDALLY ACTIVE HETEROCYCLIC DERIVATIVES WITH SULFUR CONTAINING SUBSTITUENTS” (SYNGENTA PARTICIPATIONS AG, priority 2017, published 2020).
